# Laboratory results reported in US11440921B2, “Salts, crystal forms, and production methods thereof” (Sunovion Pharmaceuticals Inc., priority 2018, dated 2022).
# Method: Approximately 200 mg of selected salts were weighed into clear glass HPLC vials. One milliliter of de-ionized water was added to each vial.
substance,measurement,setting,value
"(S)-(4,5-dihydro-7H-thieno[2,3-c]pyran-7-yl)-N-methylmethanamine R-mandelate [(S)-TPMA R-mandelate]",solubility in de-ionized water,,freely soluble
same,USP Descriptor,de-ionized water,Freely Soluble
same,Final solution PH,"de-ionized water, approx. 200 mg salt in 1 mL",6.2
same,Solubility (mgA/mL),"de-ionized water, expressed in terms of free base",>107 mgA/mL
